Earlier results on one compound are cited in patent US20210230662A1, “Methods for the Treatment of Solid Tumor Cancers Using Illudins and Biomarkers” (Lantern Pharma Inc., priority 2018, published 2021).

The test system of one series is tumor cells. Particulars: at certain doses.
A further series deals with normal cells. The settings on record: at certain doses.

`CC1=C(CO)C2=C(C)C3(CC3)[C@@](C)(O)C(=O)C2=C1` [Irofulven, HydroxyMethylAcylfulvene]: the “susceptibility of tumor cells to dual damaging activity” value in the series on tumor cells is “highly susceptible”. Moreover, the “response of normal cells to the cell-killing drug” value in the series with normal cells is recorded as “marginal response”.
